Reference: patent US20250171438A1 (Agios Pharmaceuticals, Inc., priority 2022, published 2025)

molecular target: T1, human PAH with the R408W mutation (Homo sapiens, UniProt P00439, R408W); experiment: Cell Based Phenylalanine Flux Assay; conditions: A375 cells expressing human R408W PAH; 24 hrs compound incubation; 13C-Tyrosine by LC-MS; average where tested multiple times; read-out: AC50
T1 construct: expressed in transfected cells
T1 sequence (P00439 1-452 R408W): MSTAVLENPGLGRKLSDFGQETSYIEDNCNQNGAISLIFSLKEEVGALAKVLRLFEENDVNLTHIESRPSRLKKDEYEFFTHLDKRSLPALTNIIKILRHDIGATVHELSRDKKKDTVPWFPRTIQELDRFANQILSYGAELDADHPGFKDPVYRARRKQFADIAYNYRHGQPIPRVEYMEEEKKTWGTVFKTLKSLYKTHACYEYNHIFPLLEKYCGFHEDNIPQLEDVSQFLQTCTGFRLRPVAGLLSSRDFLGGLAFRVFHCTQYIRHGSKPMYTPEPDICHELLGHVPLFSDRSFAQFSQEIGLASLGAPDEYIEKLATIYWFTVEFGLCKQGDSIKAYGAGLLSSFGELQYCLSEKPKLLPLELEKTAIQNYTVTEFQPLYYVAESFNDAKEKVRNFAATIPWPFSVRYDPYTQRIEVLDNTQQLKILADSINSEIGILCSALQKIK

Structure (SMILES) | AC50 [nM]
CC(C)(C)c1ncc(C(=O)N2CCc3[nH]cnc3[C@@H]2c2nc3ccccc3s2)s1 [Example 1422, (R)-(4-(benzo[d]thiazol-2-yl)-6,7-dihydro-1H-imidazo[4,5-c]pyridin-5(4H)-yl)(2-(tert-butyl)thiazol-5-yl)methanone] | 1000 to 5000
Cn1cc(-c2ncc(C(=O)N3CCc4[nH]cnc4[C@H]3c3nc4ccccc4s3)s2)cn1 [Example 1229] | < 500
CC(C)(O)Cn1cc(C(=O)N2CCc3[nH]cnc3[C@@H]2c2nc3c(F)cccc3s2)c(Cl)n1 [Example 1993, (R)-(3-chloro-1-(2-hydroxy-2-methylpropyl)-1H-pyrazol-4-yl)(4-(4-fluorobenzo[d]thiazol-2-yl)-6,7-dihydro-1H-imidazo[4,5-c]pyridin-5(4H)-yl)methanone] | 1000 to 5000
O=C(c1cnn2cc(F)ccc12)N1CCc2[nH]cnc2[C@@H]1c1nc2c(F)cccc2s1 [Example 1216, (R)-(4-(4-fluorobenzo[d]thiazol-2-yl)-6,7-dihydro-1H-imidazo[4,5-c]pyridin-5(4H)-yl)(6-fluoropyrazolo[1,5-a]pyridin-3-yl)methanone] | 1000 to 5000
N#Cc1ccn2ncc(C(=O)N3CCc4[nH]cnc4[C@@H]3c3nc4ccccc4s3)c2c1 [Example 1086, (R)-3-(4-(benzo[d]thiazol-2-yl)-4,5,6,7-tetrahydro-1H-imidazo[4,5-c]pyridine-5-carbonyl)pyrazolo[1,5-a]pyridine-5-carbonitrile] | 1000 to 5000
O=C(c1cn[nH]c1Cl)N1CCc2[nH]cnc2[C@@H]1c1nc2c(F)cccc2s1 [Example 1861, (R)-(5-chloro-1H-pyrazol-4-yl)(4-(4-fluorobenzo[d]thiazol-2-yl)-6,7-dihydro-1H-imidazo[4,5-c]pyridin-5(4H)-yl)methanone] | 1000 to 5000
O=C(c1cnn2cc(Cl)ccc12)N1CCc2[nH]cnc2[C@@H]1c1nc2c(F)cccc2s1 [Example 1238, (R)-(6-chloropyrazolo[1,5-a]pyridin-3-yl)(4-(4-fluorobenzo[d]thiazol-2-yl)-6,7-dihydro-1H-imidazo[4,5-c]pyridin-5(4H)-yl)methanone] | 1000 to 5000
O=C(CCC1CC1)N1CCc2[nH]cnc2[C@@H]1c1nc2cc(F)ccc2s1 [Example 1076, (R)-3-cyclopropyl-1-(4-(5-fluorobenzo[d]thiazol-2-yl)-6,7-dihydro-1H-imidazo[4,5-c]pyridin-5(4H)-yl)propan-1-one] | 1000 to 5000
O=C(CCc1nc(Cl)cs1)N1CCc2[nH]cnc2[C@H]1c1nc2ccccc2s1 [Example 1023] | 500 to 1000
O=C(CCc1nccs1)N1CCc2[nH]cnc2[C@@H]1c1nc2ccc(F)cc2s1 [Example 1030, (R)-1-(4-(6-fluorobenzo[d]thiazol-2-yl)-6,7-dihydro-1H-imidazo[4,5-c]pyridin-5(4H)-yl)-3-(thiazol-2-yl)propan-1-one] | > 5000
CC(C)(c1nc(C(F)F)c(C(=O)N2CCc3[nH]cnc3[C@H]2c2nc3c(F)cccc3s2)o1)S(C)(=O)=O [Example 2005] | < 500

same assay, conditions: A375 cells expressing human R408W PAH; 24 hrs with compound; 13C-Tyrosine by LC-MS; average where tested multiple times; read-out: AC50

Structure (SMILES) | AC50 [nM]
O=C(N1CC[C@@H](c2ccccc2)C1)N1CCc2[nH]cnc2[C@H]1c1nc2ccccc2s1 (single isomer, unassigned) | 1000 to 5000
O=C(c1n[nH]c2ccccc12)N1CCc2[nH]cnc2C1c1nc2ccc(F)cc2s1 (centres unmarked) | > 5000
COc1ccn2ncc(C(=O)N3CCc4[nH]cnc4C3c3nc4ccc(Br)cc4[nH]3)c2c1 (centres unmarked) | 1000 to 5000
O=C(c1ccsn1)N1CCc2[nH]cnc2[C@H]1c1nc2ccccc2[nH]1 [(S)-(4-(1H-benzo[d]imidazol-2-yl)-1,4,6,7-tetrahydro-5H-imidazo[4,5-c]pyridin-5-yl)(isothiazol-3-yl)methanone] | 1000 to 5000
O=C(c1cnn2cc(Cl)ccc12)N1CCc2[nH]cnc2C1c1nc2ccc(F)cc2s1 (centres unmarked) | 1000 to 5000
Cc1nc(C(C)(C)O)oc1C(=O)N1CC(C)c2[nH]cnc2C1c1nc2c(F)cccc2s1 (centres unmarked) | 1000 to 5000
